pEC50: −log10 of the molar value. Activity calls are given as the source filed them.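 The calls were made as follows: active = STAT1 activated, EC50 at most 10 µM; inactive = Over 10 µM EC50.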
Test system: NIH 3T3 STAT1-luciferase reporter, IFN-gamma, luminescence
Test: enhancers of IFN-gamma-induced STAT1 luciferase – cell-based, luminescence, NIH 3T3, dose response, powders, late-stage follow-up (AID 434932)

Compound	pEC50	EC50
CCOC(=O)/C(C#N)=C/c1cc(C)n(-c2ccccc2)c1C	5.48	–
O=C(Nc1nc2ccccc2s1)c1cc2ccccc2s1	6.08	–
CCN(CC)c1ccc2cc(C(=O)Nc3ccccn3)c(=O)oc2c1	–	10 µM (inactive)
CC(=O)NC(=S)Nc1sc2c(c1C#N)CCCCC2	–	> 55.7 µM (inactive)
Cc1cc(-c2ccc(F)cc2)n2ncc(-c3ccccc3)c2n1	7.19	–
COc1ccc(-c2cc(C)nc3c(-c4ccccc4)cnn23)cc1	5.39	–
COc1ccc2[nH]c3c(c2c1)CCn1c-3nc2ccccc2c1=O	> 8.55	–
COc1ccc(-c2csc(N3C(=O)CNC3=S)n2)cc1	5.70	–
Cc1nnc(SCC(=O)Nc2ccc(-c3nc4ccccc4s3)cc2)s1	–	> 55.7 µM (inactive)
O=C(/C=C/Nc1ccccc1F)c1ccc(Br)cc1	–	> 55.7 µM (inactive)

Reference: PubChem BioAssay AID434932 (The Scripps Research Institute Molecular Screening Center, 2010)
